{
  "source": "paper PMC12776573",
  "about": "“Mechanism of Self-Assembly of the Gonadropin Releasing Hormone Antagonist Teverelix into Amyloid Fibrils” (Molecular Pharmaceutics, 2025)",
  "origin": "cited, not measured here",
  "conditions": "side chain of Tv thought to be deprotonated on fibril formation; not measured here, no reference given",
  "source_text": "Calculations establish that a single deprotonation event occurs (see the footnote to Table S1). Considering the pK a of all possible protonation sites in Tv, we think that the pyridine side c ...",
  "note": "Square brackets hold non-standard residues; d marks the D form. Peptide text beside a SMILES is read from it. dPhe(4-Cl) = N[C@H](Cc1ccc(Cl)cc1)C(=O)O; d2Nal = N[C@H](Cc1ccc2ccccc2c1)C(=O)O; d(hCit) = NC(=O)NCCCC[C@@H](N)C(=O)O; Lys(iPr) = CC(C)NCCCC[C@H](N)C(=O)O; d3Pal = N[C@H](Cc1cccnc1)C(=O)O",
  "data": [
    {"smiles": "CC(=O)N[C@H](Cc1ccc2ccccc2c1)C(=O)N[C@H](Cc1ccc(Cl)cc1)C(=O)N[C@H](Cc1cccnc1)C(=O)N[C@@H](CO)C(=O)N[C@@H](Cc1ccc(O)cc1)C(=O)N[C@H](CCCCNC(N)=O)C(=O)N[C@@H](CC(C)C)C(=O)N[C@@H](CCCCNC(C)C)C(=O)N1CCC[C@H]1C(=O)N[C@H](C)C(N)=O", "note": "[Tv, Ac-D-Nal(2)-D-Phe(4Cl)-D-Pal(3)-Ser-Tyr-D-Hcit-Leu-Lys(iPr)-Pro-D-Ala-NH2] (Ac-[d2Nal][dPhe(4-Cl)][d3Pal]SY[d(hCit)]L[Lys(iPr)]P[dA]-NH2)", "values": [
      {"measurement": "pKa of the pyridine side chain", "value": 5.22}
    ]}
  ]
}
